Read-outs that look alike come from different tables or passages of the source.
Assays:
mouse RyR2 NTR = target: T1, mouse RyR2 NTR (Mus musculus, UniProt E9Q401, K30C/K441C, form not given); assay: FLT-FRET dose-response with AC-NTR biosensor; assay type: binding; details: for decrease of donor-only FLT as share of the FLT change in the donor-acceptor sample: interference control, designated interfering compounds; for ΔFLT / saturation of FRET dose-response: 0 to 100 μM; for ΔFLT: CPNQ/corbadrine decrease FLT, FA/tacrolimus increase FLT; for saturation of FRET dose-response: decreased FLT
T1 sequence (E9Q401 1-547 K30C/K441C): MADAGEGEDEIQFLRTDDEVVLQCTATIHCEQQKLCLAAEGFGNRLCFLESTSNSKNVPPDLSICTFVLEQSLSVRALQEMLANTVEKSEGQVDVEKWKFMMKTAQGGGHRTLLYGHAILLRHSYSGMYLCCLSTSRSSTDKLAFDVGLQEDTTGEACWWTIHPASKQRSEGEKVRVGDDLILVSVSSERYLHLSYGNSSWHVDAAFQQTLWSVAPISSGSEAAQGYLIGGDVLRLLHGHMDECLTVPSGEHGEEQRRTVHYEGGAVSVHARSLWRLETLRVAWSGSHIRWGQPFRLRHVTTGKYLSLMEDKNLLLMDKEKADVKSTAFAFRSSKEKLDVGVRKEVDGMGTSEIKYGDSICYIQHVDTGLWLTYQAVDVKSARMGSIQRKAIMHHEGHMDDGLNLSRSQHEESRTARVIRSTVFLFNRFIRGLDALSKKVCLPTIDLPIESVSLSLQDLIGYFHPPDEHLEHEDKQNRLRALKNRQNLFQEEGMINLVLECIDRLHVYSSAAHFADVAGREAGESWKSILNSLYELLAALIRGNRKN
Text: The NTR of mouse RyR2 (residues 1–547) was cloned and expressed as previously described ([27]). The DNA construct contains a 6×His tag, a maltose-binding protein (MBP) tag, and a tobacco etch virus (TEV) protease cleavage site. The seven native solvent-exposed cysteine residues were substituted with alanine residues, and two constructs were engineered with Cys substitutions at surface residues R383 and K441 (in the B and C domains, respectively; termed BC) and at K30 and K441 (in the A and C domains, respectively; termed AC) for labeling with spectroscopic probes such as appropriate donor–acceptor fluorophores for FRET (for the purpose of this report, these are considered the WT forms of AC and BC). A variant of the BC construct corresponding to the disease-associated mutant (R420Q) was also prepared. For this site-directed mutagenesis work, we used the QuikChange (Stratagene) and Phusion High-Fidelity PCR (Thermo Fisher Scientific) kits. The WT-NTR, R420Q-NTR, AC- and BC-NTR, AC- and BC-R420Q-NTR protein constructs were expressed in Escherichia coli Rosetta (DE3) pLacI cells at 18 °C and purified with a protocol adapted from previously published work ([26]). An amylose column was first applied after the cells were lysed by ultrasonication. The protein in the elution was then cleaved using TEV protease. The cleaved crude protein went through the second amylose column to separate from the MBP and then followed by a Superdex S-200 size exclusion column in a buffer consisting of 250 mM KCl, 10 mM HEPES, and 14 mM β-mercaptoethanol (pH 7.4). The NTR protein (3 μM) was then incubated in 10 mM HEPES, 250 mM KCl (pH 7.4, 2 h, 21 °C) with the fluorescent probes Alexa Fluor 488 maleimide (AF488, donor; 40 μM) and Alexa Fluor 568 maleimide (AF568, acceptor; 60 μM). The maleimide of the dye reacts with the thiols the Cys residues engineered into NTR, forming a covalently labeled protein. The Alexa dyes were added last to the reaction mixture, from 10 mM DMSO stock solutions. This reaction is not selective to one site (K30C or K441C), and we anticipate that there is a mixed population with K30C or K441C labeled with either AF488 (donor) or AF568 (acceptor). We focused on maximizing the fraction containing donor–acceptor pairs, thus maximizing FRET efficiency and the precision for detecting a change in structure as an indication that a compound interacts with the NTR biosensor. The labeling efficiency was determined by comparing the molar concentration of the bound dye, determined from UV-Vis absorbance, to the protein concentration, determined from gel densitometry. Essentially complete labeling was confirmed from electrospray ionization mass spectrometry. CD spectra of the WT-NTR and mutant R420Q-NTR constructs before and after labeling were recorded using a JASCO J-815 CD spectrometer (JASCO), confirming similar folding (Fig. S1).
The 1536-well assay plates were prepared as described in our previous reports ([21]). The LOPAC (Sigma-Aldrich) collection received in 96-well plates was reformatted into 384-well polypropylene intermediate plates (Greiner Bio-One) using a multichannel liquid handler, BioMek FX (Beckman Coulter), then transferred to 384-well Echo Qualified source plates (Labcyte Inc). Assay plates were prepared as previously described ([20]). On screening days, these plates were thawed out and were loaded with labeled NTR (5 μl, 20 nM final concentration) using a Multidrop Combi automated sample dispenser.
HTS measurements were conducted in a prototype top-read FLT plate reader (FLT-PR, Fluorescence Innovations, Inc), which reads each 1536-well plate in ∼3 min ([63], [64]). AF488 donor fluorescence was excited with a 473 nm microchip laser from Concepts Research Corporation, and the emission signal was split into two channels by a dichroic mirror and acquired with 517 ± 10 nm (channel 1) and 535 ± 7 nm band-pass filters (channel 2) (Semrock). […]

RyR1 = target: T2, RyR1 (Sus scrofa, UniProt P16960); assay: [3H]ryanodine binding to skeletal SR (HSR) vesicles; assay type: biochemical, pig; details: for EC50: Table S4, read-out: EC50, [3H]ryanodine binding, skeletal HSR; for maximum inhibitory effect on [3H]ryanodine binding / effect on [3H]ryanodine binding to RyR1: skeletal SR; for maximum inhibitory effect on [3H]ryanodine binding: 30 nM Ca2+; for effect on [3H]ryanodine binding to RyR1: 30 μM Ca2+
T2 construct: from tissue; host or cells: porcine longissimus dorsi muscle, heavy SR vesicles
T2 sequence (P16960 whole entry): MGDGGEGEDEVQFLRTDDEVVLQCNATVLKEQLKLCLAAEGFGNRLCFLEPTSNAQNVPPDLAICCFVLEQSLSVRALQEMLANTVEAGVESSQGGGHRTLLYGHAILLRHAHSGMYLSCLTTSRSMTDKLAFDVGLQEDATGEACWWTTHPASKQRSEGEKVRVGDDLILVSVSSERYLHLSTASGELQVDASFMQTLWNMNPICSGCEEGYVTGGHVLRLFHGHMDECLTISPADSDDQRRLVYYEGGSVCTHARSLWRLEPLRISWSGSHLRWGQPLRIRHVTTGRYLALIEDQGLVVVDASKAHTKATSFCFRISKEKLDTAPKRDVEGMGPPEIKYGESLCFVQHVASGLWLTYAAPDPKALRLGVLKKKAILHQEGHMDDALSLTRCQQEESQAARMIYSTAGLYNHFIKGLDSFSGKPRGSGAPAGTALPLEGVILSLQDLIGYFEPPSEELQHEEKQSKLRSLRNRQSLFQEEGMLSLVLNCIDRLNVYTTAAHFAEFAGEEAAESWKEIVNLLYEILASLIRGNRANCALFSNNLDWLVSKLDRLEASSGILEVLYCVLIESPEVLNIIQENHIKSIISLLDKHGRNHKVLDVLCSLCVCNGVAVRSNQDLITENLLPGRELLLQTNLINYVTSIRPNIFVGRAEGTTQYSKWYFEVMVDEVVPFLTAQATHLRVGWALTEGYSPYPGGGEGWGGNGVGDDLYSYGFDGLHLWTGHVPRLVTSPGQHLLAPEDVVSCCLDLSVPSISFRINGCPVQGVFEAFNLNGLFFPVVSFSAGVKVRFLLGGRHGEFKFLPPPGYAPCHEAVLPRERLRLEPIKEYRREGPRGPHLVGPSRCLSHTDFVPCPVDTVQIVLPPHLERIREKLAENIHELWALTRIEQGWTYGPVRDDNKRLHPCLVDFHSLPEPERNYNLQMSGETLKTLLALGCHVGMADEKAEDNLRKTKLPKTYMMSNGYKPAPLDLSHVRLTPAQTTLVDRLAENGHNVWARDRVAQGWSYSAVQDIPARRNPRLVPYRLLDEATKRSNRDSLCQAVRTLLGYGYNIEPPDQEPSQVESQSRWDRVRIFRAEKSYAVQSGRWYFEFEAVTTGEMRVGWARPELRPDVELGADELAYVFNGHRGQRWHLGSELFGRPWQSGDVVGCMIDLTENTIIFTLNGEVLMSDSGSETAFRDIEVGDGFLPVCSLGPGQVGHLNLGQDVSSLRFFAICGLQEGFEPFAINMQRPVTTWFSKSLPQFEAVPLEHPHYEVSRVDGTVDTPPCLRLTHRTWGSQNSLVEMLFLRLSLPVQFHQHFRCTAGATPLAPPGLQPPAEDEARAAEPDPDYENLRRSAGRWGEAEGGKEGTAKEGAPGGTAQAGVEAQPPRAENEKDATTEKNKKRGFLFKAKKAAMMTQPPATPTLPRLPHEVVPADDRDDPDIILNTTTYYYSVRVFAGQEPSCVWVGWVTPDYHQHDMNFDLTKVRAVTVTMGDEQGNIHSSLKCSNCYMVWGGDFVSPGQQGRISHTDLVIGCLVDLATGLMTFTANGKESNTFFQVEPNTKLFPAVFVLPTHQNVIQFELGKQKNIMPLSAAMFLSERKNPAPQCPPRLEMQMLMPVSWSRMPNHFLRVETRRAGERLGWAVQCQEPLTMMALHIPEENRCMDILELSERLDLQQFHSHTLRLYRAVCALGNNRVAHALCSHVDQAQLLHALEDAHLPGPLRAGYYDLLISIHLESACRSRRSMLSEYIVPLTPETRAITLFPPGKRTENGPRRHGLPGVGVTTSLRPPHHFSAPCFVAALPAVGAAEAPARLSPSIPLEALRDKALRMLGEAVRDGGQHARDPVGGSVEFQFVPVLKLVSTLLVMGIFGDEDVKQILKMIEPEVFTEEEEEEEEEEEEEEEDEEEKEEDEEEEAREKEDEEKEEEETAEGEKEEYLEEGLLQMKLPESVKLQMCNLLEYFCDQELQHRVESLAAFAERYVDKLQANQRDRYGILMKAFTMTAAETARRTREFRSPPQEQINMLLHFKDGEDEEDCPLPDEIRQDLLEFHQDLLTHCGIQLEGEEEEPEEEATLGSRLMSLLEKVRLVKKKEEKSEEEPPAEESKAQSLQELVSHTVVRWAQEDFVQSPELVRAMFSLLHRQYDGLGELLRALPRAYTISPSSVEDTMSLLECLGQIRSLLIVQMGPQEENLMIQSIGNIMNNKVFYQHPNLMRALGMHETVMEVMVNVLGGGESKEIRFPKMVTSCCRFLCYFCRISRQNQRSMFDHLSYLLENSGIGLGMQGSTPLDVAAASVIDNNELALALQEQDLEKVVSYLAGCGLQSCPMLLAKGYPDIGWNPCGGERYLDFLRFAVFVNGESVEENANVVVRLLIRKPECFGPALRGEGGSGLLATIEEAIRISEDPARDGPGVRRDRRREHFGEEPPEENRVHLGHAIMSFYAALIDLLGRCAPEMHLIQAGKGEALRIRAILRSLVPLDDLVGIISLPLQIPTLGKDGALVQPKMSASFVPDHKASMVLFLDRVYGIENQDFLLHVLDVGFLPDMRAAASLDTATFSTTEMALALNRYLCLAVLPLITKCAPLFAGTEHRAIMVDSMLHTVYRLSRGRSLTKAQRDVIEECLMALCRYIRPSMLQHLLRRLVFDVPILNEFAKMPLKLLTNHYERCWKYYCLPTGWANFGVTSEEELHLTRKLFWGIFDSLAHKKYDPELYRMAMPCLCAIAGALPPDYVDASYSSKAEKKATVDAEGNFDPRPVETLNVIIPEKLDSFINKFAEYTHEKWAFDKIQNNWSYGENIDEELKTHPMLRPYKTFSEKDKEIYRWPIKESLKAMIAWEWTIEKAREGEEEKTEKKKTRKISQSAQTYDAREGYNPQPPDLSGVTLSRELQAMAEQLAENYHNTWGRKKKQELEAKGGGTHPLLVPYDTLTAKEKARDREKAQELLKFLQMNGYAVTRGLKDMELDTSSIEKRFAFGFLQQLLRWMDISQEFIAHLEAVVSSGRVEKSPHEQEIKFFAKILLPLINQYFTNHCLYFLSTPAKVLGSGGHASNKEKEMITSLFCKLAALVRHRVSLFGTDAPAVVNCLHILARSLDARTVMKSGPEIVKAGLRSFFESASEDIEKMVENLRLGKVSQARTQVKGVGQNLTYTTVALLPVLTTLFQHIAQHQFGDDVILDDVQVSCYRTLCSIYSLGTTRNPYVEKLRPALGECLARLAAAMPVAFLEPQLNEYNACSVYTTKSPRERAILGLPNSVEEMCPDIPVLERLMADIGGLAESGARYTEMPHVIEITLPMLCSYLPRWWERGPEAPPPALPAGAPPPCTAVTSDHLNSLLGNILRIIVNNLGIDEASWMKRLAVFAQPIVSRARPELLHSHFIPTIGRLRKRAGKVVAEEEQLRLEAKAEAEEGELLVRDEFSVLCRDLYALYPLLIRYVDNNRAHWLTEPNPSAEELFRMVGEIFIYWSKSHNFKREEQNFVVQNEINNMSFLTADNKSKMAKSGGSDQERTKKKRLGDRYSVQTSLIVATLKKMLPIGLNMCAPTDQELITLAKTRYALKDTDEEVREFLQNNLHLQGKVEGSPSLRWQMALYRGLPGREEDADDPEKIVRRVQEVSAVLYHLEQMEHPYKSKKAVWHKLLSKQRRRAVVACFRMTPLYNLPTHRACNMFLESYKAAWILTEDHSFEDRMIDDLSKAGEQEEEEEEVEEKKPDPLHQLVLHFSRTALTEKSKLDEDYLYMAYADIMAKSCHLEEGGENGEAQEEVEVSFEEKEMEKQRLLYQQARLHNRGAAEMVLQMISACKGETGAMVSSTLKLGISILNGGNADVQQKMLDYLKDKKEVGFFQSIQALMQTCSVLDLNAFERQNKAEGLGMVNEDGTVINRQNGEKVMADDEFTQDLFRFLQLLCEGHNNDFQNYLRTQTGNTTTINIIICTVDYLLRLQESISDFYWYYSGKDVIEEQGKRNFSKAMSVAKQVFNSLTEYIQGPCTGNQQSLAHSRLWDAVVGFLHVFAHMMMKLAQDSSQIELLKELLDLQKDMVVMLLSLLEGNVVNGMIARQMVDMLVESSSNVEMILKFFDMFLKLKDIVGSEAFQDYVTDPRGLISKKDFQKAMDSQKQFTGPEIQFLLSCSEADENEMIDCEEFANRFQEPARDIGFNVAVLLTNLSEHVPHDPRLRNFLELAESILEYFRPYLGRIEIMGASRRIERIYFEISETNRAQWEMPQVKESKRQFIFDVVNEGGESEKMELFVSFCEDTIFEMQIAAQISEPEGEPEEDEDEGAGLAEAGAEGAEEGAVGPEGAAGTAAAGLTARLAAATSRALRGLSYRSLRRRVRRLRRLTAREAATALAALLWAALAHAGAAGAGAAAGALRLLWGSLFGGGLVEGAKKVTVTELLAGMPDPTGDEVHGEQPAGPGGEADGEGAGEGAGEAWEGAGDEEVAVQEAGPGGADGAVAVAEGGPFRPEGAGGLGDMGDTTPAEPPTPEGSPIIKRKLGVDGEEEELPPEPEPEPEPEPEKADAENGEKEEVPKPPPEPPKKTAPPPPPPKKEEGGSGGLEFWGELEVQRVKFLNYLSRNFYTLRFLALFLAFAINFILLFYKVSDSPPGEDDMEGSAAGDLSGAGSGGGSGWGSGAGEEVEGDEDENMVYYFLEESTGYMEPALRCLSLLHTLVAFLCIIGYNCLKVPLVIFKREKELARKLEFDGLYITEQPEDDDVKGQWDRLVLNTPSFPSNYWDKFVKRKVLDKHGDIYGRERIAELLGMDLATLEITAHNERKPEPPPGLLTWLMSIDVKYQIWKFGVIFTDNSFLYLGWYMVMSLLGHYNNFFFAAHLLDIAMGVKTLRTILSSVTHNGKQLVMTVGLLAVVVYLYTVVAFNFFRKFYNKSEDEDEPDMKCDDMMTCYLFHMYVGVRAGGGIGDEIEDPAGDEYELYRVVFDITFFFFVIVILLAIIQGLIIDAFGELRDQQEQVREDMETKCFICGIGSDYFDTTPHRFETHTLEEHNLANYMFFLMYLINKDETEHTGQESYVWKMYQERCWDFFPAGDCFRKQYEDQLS
Method: (§1) Crude sarcoplasmic reticulum membrane vesicles were isolated from porcine longissimus dorsi muscle and porcine cardiac left ventricle tissue by differential centrifugation of homogenized tissue, as established previously ([65]). Skeletal heavy SR (HSR) vesicles, which are enriched with RyR1, were isolated by fractionation of crude skeletal SR vesicles using a discontinuous sucrose gradient, in accordance with our published work ([65]). All vesicles were flash-frozen and stored at −80 °C.
(§2) In 96-well plates, skeletal SR membranes (HSR, 1 mg/ml) and cardiac SR membranes (CSR, 3 mg/ml) were preincubated with 1% DMSO or hit compound for 30 min at 22 °C in a solution containing 150 mM KCl, 5 mM GSH, 1 μg/ml Aprotinin/Leupeptin, 1 mM EGTA, and 65 μM or 1.02 mM CaCl2 (as determined by MaxChelator to yield 30 nM or 30 μM of free Ca^2+, respectively), 0.1 mg/ml of BSA, and 20 mM K-PIPES (pH 7.0). Nonspecific [^3H]ryanodine binding to SR was assessed by addition of 40 μM nonradioactively labeled ryanodine. Maximal [^3H]ryanodine binding was assessed by addition of 5 mM adenylyl-imidodiphosphate (AMP-PNP), and in the case of CSR, 20 mM caffeine was added. These control samples were each loaded over four wells per plate. Binding of [^3H]ryanodine (7.5 and 10 nM for CSR and HSR, respectively) was determined following a 3 h incubation at 37 °C and filtration through grade GF/B glass microfiber filters (Brandel Inc) using a Brandel Harvester. In 4 ml of Ecolite scintillation cocktail (MP biomedicals), [^3H]ryanodine retained on the filter was counted using a Beckman LS6000 scintillation counter.

RyR2 = target: T3, RyR2 (Sus scrofa, UniProt A0A5G2R1W3); assay: [3H]ryanodine binding to cardiac SR (CSR) vesicles; assay type: biochemical, pig; details: for EC50: Table S4, read-out: EC50, [3H]ryanodine binding, cardiac SR; for effect on [3H]ryanodine binding to RyR2: cardiac SR
T3 construct: from tissue; host or cells: porcine cardiac left ventricle, crude SR vesicles
Method: as §1, §2

RyR = tested on: RyR; design: method as in PMID 27760856, PMID 32019969; details: cited from earlier work
[1] = AC-NTR biosensor, Hill fit, Table S4, read-out: EC50, FRET dose-response

SMILES: COc1ccc(/C=C/c2nc(NCCCN(C)C)c3ccccc3n2)cc1 [CP-31398]
- decrease of donor-only FLT as share of the FLT change in the donor-acceptor sample (mouse RyR2 NTR): > 50%

SMILES: O=C(c1ccc(Cl)cc1)N1CCN(c2ccc([N+](=O)[O-])c3ncccc23)CC1 [CPNQ, 5-[4-(4-Chlorobenzoyl)-1-piperazinyl]-8-nitroquinoline]
- ΔFLT (mouse RyR2 NTR; AC-NTR biosensor): ≈ 0.35 ns
- EC50 (mouse RyR2 NTR; [1]): 1.3 µM
- EC50 (RyR1; [Ca2+] 30 nM): 0.02 µM
- maximum inhibitory effect on [3H]ryanodine binding (RyR1): approximately 30%
- effect on [3H]ryanodine binding to RyR1 (RyR1): only slightly affected
- EC50 (RyR2; [Ca2+] 30 nM): 0.02 µM
- effect on [3H]ryanodine binding to RyR2 (RyR2; 30 nM Ca2+): inhibitory trend
- effect on [3H]ryanodine binding to RyR2 (RyR2; 30 μM Ca2+): did not significantly alter

SMILES: CN(C)c1ccccc1CN1CCCN(Cc2ccccc2N(C)C)C1c1ccncc1 [GANT61, 2-[[3-[[2-(dimethylamino)phenyl]methyl]-2-pyridin-4-yl-1,3-diazinan-1-yl]methyl]-N,N-dimethylaniline]
- EC50 (mouse RyR2 NTR; [1]): 15.8 µM
- saturation of FRET dose-response (mouse RyR2 NTR): did not reach saturation within the tested concentration range
- EC50 (RyR1; [Ca2+] 30 nM): 0.004 µM
- EC50 (RyR1; [Ca2+], 30 µM): 9.4 µM
- maximum inhibitory effect on [3H]ryanodine binding (RyR1): ~50%
- effect on [3H]ryanodine binding to RyR1 (RyR1): gradual inhibition at concentrations >1 μM
- EC50 (RyR2; [Ca2+] 30 nM): 0.004 µM
- EC50 (RyR2; [Ca2+], 30 µM): 17.3 µM
- effect on [3H]ryanodine binding to RyR2 (RyR2; 30 μM Ca2+): inhibitor at concentration >1 μM

SMILES: Nc1ccc(-c2nc3ccc(-c4nc5ccc(N)cc5[nH]4)cc3[nH]2)cc1 [Ro 90-7501, 2'-(4-Aminophenyl)-1H,1'H-2,5'-bibenzimidazol-5-amine]
- EC50 (mouse RyR2 NTR; hits that increased FLT, read-out: EC50 (FRET dose-response)): < 1 µM
- effect on RyR (RyR): inhibitory

SMILES: CSc1c(C)c(SC)n2ccncc12 [oltipraz M2, 7-Methyl-6,8-bis(methylthio)-pyrrolo[1,2-a]pyrazine]
- EC50 (mouse RyR2 NTR; [1]): 21.7 µM
- saturation of FRET dose-response (mouse RyR2 NTR): did not reach saturation within the tested concentration range
- EC50 (RyR1; [Ca2+] 30 nM): 0.005 µM
- maximum inhibitory effect on [3H]ryanodine binding (RyR1): ~50%
- effect on [3H]ryanodine binding to RyR1 (RyR1): only slightly affected
- effect on [3H]ryanodine binding to RyR2 (RyR2; 30 nM Ca2+): almost no effect
- effect on [3H]ryanodine binding to RyR2 (RyR2; 30 μM Ca2+): did not significantly alter

SMILES: C=CC[C@@H]1/C=C(\C)C[C@H](C)C[C@H](OC)[C@H]2O[C@@](O)(C(=O)C(=O)N3CCCC[C@H]3C(=O)O[C@H](/C(C)=C/[C@@H]3CC[C@@H](O)[C@H](OC)C3)[C@H](C)[C@@H](O)CC1=O)[C@H](C)C[C@@H]2OC [tacrolimus, (3S,4R,5S,8R,9E,12S,14S,15R,16S,18R,19R,26aS)-5,19-dihydroxy-3-{(1E)-1-[(1R,3R,4R)-4-hydroxy-3-methoxycyclohexyl]prop-1-en-2-yl}-14,16-dimethoxy-4,10,12,18-tetramethyl-8-(prop-2-en-1-yl)-5,6,8,11,12,13,14,15,16,17,18,19,24,25,26,26a-hexadecahydro-3H-15,19-epoxypyrido[2,1-c][1,4]oxazacyclotricosine-1,7,20,21(4H,23H)-tetrone]
- ΔFLT (mouse RyR2 NTR; AC-NTR biosensor): ≈ 0.1 ns
- effect on RyR (RyR): activatory

SMILES: CC/C(=C(\c1ccccc1)c1ccc(OCCN(C)C)cc1)c1ccccc1 [tamoxifen]
- decrease of donor-only FLT as share of the FLT change in the donor-acceptor sample (mouse RyR2 NTR): > 50%

SMILES: CO[C@H]1C[C@@H]2CC[C@@H](C)[C@@](O)(O2)C(=O)C(=O)N2CCCC[C@H]2C(=O)O[C@H]([C@H](C)C[C@@H]2CC[C@@H](OC(=O)C(C)(CO)CO)[C@H](OC)C2)CC(=O)[C@H](C)/C=C(\C)[C@@H](O)[C@@H](OC)C(=O)[C@H](C)C[C@H](C)/C=C/C=C/C=C/1C [temsirolimus, (1R,2R,4S)-4-{(2R)-2-[(3S,6R,7E,9R,10R,12R,14S,15E,17E,19E,21S,23S,26R,27R,34aS)-9,27-dihydroxy-10,21-dimethoxy-6,8,12,14,20,26-hexamethyl-1,5,11,28,29-pentaoxo-1,4,5,6,9,10,11,12,13,14,21,22,23,24,25,26,27,28,29,31,32,33,34,34a-tetracosahydro-3H-23,27-epoxypyrido[2,1-c][1,4]oxazacyclohentriacontin-3-yl]propyl}-2-methoxycyclohexyl 3-hydroxy-2-(hydroxymethyl)-2-methylpropanoate]
- EC50 (mouse RyR2 NTR; read-out: EC50 (FRET dose-response), hits that increased FLT): < 1 µM
